{"source": "paper PMC9988422", "about": "“Usefulness of a humanized tricellular static transwell blood–brain barrier model as a microphysiological system for drug development applications. - A case study based on the benchmark evaluations of blood-brain barrier microphysiological system” (Regenerative Therapy, 2023)", "key": {"Glut1": {"biological_target": "T1, Glut1 (Homo sapiens, UniProt P11166)", "T1 construct": "endogenous in cells; host or cells: HBMEC/ci18 co-cultured with HBPC/ci37 and HASTR/ci35 (transwell)", "T1 sequence (P11166 1-492)": "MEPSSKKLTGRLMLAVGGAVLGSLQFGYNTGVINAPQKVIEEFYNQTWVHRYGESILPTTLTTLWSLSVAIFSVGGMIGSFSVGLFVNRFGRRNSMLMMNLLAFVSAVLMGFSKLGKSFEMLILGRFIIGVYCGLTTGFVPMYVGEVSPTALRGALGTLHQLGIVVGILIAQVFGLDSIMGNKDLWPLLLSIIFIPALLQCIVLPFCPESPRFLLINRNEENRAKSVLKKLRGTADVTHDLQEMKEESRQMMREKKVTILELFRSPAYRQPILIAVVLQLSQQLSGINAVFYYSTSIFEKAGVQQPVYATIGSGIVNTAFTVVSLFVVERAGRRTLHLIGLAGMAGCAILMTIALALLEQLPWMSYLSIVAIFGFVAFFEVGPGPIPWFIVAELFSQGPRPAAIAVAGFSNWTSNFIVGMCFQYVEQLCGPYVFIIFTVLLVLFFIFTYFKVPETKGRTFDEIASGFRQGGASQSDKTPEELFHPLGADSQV", "assay": "Bidirectional transport assay in the human in vitro BBB model, Glut1 substrate", "format": "in vitro ADME", "settings": "2-NBDG 100 μg/ml", "description": "(§1) In vitro human BBB models were developed by combining three immortalized cell lines). Briefly, HBPC/ci37 cells were seeded on the bottom side of the collagen IV- and Fibronectin-coated polycarbonate membrane of a transwell insert (Millicell cell culture insert 24-well hanging inserts, 0.4 μm […]; Merck, Darmstadt, Germany) at a density of 1.0 × 10^4 cells/insert. The cells were then cultured for 1 day to allow them to attach firmly. HASTR/ci35 cells were seeded (5.0 × 10^4 cells/well) on collagen I-coated 24-well plates (Greiner Bio-one, Frickenhausen, Germany) and maintained in astrocyte culture medium. HBPC/ci37 cells were induced to differentiate by replacing the pericyte medium with pericyte differentiation medium, which was consisted of FBS- and blasticidin S-free pericyte medium; HASTR/ci35 cells were induced to differentiate by replacing the astrocyte culture medium with astrocyte differentiation medium, which was consisted of FBS- and blasticidin S-free astrocyte growth medium supplemented with 1 mM adenosine 3′,5′-cyclic monophosphate sodium salt monohydrate. After the differentiation media were added, both cell lines were cultured at 37 °C for 24 h. To start a coculture, HBMEC/ci18 cells were seeded on the inner side of the HBPC/ci37 cell culture insert at a density of 1.0 × 10^5 cells. […]"}, "[1]": {"assay": "Permeability assay with permeable and nonpermeable compounds in the human in vitro BBB model", "settings": "human", "description": "as §1"}, "[2]": {"test_system": "human in vitro BBB model (HBMEC/ci18, HBPC/ci37, HASTR/ci35)", "assay": "Permeability assay with permeable and nonpermeable compounds in the human in vitro BBB model", "description": "as §1"}}}
{"molecule": "O=[N+]([O-])c1ccc(N[C@H]2C(O)O[C@H](CO)[C@@H](O)[C@@H]2O)c2nonc12", "note": "(stereo partly shown) [2-NBDG]", "values": [{"measurement": "Efflux Ratio Mean", "setting": "Glut1; mean of 4 independent experiments", "value": 1.1}, {"measurement": "Efflux Ratio (Pe (B to A)/Pe (A to B))", "setting": "Glut1; single independent experiment", "value": 1.01}]}
{"molecule": "Cn1c(=O)c2c(ncn2C)n(C)c1=O", "note": "[caffeine]", "values": [{"measurement": "Papp at 5 μM", "setting": "[1]", "value": "1160 ± 492", "unit": "×10⁻⁶ cm/s"}]}
{"molecule": "Lucifer Yellow", "values": [{"measurement": "Pe value (permeability coefficient)", "setting": "[2]", "value": "90.2 ± 23.1 × 10^−6 cm/s"}]}
